Values belong to the molecule of their own block, whether it stands above or below them.
Legend:
Test in all cases: Competitive isoTOP-ABPP, cell lysates
Assay type in all cases: binding
USP16 C205 (Q9Y5T5) = USP16 C205 (Q9Y5T5) (Homo sapiens, UniProt Q9Y5T5); details: for isoTOP-ABPP reactivity ratio, Q9Y5T5_C205 / isoTOP-ABPP reactivity profile ratio, Q9Y5T5_C205: 500 μm
CYR61 C39 (O00622) = target: T1, CYR61 C39 (O00622) (Homo sapiens, UniProt O00622); details: for isoTOP-ABPP reactivity ratio, O00622_C39 / isoTOP-ABPP reactivity profile ratio, O00622_C39: 500 μm, in-vitro_ramos_231
T1 sequence (O00622 25-381): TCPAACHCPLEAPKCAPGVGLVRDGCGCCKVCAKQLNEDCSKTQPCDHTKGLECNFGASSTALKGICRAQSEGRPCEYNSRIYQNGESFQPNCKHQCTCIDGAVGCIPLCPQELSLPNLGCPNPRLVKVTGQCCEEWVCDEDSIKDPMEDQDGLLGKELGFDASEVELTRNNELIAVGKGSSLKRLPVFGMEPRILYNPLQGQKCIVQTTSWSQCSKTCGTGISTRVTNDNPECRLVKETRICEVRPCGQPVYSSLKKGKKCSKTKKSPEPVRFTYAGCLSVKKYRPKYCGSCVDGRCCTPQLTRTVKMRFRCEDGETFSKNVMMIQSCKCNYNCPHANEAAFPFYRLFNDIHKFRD

USP48 C39 (Q86UV5) = target: T2, USP48 C39 (Q86UV5) (Homo sapiens, UniProt Q86UV5); details: for isoTOP-ABPP reactivity ratio, Q86UV5_C39 / isoTOP-ABPP reactivity profile ratio, Q86UV5_C39: 500 μm
T2 sequence (Q86UV5 1-1035): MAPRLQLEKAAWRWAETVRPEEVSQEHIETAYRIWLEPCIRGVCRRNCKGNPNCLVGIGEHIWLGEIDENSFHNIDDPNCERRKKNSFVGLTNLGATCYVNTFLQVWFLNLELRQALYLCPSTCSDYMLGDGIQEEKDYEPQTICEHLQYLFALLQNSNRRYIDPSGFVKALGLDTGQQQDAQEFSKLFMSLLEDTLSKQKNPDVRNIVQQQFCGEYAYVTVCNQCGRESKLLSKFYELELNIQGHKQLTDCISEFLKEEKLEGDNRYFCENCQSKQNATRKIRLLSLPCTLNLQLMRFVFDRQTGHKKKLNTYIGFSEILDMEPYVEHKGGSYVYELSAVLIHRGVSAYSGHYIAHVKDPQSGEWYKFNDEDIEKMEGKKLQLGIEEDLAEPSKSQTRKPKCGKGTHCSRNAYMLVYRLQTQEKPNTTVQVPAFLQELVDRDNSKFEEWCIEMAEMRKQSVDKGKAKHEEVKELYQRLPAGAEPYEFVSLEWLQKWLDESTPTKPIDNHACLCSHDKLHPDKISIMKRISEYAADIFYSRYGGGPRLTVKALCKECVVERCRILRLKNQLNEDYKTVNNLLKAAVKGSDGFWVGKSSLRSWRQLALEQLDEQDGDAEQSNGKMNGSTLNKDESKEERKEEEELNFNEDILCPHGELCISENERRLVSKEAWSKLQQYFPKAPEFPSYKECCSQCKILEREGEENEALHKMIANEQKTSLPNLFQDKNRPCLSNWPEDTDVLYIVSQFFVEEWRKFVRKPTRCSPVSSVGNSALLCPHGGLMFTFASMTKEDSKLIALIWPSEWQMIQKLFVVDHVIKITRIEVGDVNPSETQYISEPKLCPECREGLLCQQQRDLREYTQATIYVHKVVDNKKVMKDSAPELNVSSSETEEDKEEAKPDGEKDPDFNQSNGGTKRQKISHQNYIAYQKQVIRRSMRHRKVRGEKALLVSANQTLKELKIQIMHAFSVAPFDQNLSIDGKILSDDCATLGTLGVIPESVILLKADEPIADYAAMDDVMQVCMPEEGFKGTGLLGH

LRBA C1704 (P50851) = LRBA C1704 (P50851) (Homo sapiens, UniProt P50851); details: 500 μm, in-vitro_ramos
LRBA C1704 (P50851), sequence (P50851 whole entry): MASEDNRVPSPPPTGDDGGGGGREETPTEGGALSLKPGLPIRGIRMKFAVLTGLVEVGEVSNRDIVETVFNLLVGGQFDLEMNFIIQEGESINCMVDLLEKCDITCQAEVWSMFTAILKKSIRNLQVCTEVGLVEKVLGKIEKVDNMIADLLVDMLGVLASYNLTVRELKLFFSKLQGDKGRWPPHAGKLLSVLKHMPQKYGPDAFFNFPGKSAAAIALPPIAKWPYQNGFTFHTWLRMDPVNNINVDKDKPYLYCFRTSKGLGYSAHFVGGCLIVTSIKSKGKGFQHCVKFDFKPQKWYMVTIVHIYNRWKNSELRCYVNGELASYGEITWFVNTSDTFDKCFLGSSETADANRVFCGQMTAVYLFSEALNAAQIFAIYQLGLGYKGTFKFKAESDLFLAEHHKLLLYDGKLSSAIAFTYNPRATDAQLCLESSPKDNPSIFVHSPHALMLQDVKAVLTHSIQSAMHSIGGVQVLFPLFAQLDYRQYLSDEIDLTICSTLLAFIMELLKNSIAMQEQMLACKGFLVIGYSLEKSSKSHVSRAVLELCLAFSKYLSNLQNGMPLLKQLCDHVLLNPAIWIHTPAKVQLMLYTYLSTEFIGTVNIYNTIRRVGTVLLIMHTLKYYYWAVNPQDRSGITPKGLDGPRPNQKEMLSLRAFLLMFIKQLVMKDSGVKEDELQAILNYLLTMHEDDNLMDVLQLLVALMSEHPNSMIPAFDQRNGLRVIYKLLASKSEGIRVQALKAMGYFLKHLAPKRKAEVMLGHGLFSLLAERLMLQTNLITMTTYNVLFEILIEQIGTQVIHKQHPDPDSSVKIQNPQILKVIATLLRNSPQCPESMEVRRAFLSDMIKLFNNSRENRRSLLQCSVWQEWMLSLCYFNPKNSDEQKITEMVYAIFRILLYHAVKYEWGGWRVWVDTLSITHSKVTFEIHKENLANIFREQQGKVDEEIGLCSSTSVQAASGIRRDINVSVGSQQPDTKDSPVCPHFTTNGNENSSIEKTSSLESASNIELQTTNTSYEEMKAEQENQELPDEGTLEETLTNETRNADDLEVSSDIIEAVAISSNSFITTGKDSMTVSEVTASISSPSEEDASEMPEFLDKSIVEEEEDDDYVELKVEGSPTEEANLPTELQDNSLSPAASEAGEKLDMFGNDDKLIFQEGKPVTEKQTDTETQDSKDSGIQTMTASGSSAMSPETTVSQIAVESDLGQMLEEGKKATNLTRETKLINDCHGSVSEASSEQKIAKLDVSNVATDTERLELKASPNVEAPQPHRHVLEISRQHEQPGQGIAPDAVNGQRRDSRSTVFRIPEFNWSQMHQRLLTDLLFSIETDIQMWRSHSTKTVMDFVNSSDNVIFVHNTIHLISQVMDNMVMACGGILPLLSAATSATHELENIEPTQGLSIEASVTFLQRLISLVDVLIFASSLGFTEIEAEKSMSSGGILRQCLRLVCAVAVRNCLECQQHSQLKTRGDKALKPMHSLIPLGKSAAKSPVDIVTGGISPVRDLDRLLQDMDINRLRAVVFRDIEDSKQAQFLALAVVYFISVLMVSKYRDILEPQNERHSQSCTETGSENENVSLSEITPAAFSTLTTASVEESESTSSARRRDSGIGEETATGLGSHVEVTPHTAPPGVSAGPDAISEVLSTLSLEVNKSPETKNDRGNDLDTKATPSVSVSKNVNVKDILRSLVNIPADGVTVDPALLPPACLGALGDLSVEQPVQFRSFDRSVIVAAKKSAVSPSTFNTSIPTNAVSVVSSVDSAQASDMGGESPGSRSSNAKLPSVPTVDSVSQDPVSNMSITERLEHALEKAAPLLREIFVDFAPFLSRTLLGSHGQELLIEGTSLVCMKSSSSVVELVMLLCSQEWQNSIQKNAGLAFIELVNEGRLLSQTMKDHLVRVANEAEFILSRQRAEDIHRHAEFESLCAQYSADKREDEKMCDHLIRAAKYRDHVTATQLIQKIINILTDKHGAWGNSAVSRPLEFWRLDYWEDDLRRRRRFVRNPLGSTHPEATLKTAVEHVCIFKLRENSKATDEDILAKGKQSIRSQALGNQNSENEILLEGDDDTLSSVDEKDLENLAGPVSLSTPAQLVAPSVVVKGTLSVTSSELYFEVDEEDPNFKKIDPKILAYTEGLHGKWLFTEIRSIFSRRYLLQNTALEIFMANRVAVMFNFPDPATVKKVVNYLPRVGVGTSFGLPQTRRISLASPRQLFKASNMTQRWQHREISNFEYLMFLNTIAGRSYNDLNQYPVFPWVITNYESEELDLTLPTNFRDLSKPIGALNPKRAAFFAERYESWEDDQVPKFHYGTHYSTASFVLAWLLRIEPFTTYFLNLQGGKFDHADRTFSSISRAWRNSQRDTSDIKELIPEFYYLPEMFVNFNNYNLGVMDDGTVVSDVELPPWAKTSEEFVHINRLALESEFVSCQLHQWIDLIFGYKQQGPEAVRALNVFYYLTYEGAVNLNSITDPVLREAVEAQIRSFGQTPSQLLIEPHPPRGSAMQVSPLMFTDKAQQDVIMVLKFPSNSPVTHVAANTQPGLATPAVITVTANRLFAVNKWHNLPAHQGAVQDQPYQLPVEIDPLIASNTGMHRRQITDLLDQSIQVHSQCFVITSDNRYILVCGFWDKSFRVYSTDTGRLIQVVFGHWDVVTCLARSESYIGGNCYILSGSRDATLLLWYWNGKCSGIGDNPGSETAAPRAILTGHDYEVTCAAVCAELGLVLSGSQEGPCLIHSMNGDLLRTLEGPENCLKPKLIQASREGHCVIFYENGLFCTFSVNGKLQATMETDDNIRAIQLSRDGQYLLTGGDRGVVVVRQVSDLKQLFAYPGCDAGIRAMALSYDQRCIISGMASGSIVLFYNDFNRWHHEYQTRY

PFKFB4 C159 (Q16877) = PFKFB4 C159 (Q16877) (Homo sapiens, UniProt Q16877); details: 500 μm, in-vitro_ramos
PFKFB4 C159 (Q16877), sequence (Q16877 whole entry): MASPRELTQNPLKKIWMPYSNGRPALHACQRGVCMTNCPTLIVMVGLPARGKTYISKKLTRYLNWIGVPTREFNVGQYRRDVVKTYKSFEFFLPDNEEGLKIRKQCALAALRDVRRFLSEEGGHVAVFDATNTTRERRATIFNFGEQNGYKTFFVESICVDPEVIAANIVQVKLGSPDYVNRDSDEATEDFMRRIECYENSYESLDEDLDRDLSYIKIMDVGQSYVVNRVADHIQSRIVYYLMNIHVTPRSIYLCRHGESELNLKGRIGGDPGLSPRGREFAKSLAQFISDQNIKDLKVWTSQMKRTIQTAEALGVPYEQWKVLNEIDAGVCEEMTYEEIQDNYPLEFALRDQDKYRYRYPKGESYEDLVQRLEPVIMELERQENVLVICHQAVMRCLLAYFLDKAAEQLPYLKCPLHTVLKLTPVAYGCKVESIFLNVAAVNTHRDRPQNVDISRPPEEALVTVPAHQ

USP16 C205 (Q9Y5T5), sequence (Q9Y5T5 whole entry): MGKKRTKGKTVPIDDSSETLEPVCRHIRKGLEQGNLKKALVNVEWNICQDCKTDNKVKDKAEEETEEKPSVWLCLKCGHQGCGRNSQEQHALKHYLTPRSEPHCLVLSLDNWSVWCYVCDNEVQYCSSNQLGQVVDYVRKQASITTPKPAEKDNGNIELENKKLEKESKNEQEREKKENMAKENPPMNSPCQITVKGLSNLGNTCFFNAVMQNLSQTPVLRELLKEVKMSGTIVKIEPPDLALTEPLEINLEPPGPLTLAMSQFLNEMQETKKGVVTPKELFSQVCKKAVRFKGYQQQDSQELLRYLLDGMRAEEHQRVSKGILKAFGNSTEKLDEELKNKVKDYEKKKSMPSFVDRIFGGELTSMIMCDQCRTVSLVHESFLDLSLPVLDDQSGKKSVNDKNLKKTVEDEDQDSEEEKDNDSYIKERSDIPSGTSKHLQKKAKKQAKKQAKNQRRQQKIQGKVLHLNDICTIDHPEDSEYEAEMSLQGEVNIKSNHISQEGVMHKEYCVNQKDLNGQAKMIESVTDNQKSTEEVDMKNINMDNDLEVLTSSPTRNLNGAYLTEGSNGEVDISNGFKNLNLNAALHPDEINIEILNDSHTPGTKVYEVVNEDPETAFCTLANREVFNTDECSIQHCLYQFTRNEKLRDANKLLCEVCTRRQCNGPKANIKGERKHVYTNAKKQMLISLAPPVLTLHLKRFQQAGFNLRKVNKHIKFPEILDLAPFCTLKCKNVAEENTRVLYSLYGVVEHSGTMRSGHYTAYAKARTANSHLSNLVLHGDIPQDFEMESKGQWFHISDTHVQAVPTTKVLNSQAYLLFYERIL

- isoTOP-ABPP ratio (reactivity profile), Q9Y5T5_C205 (USP16 C205 (Q9Y5T5); 500 μm in-vitro ramos): 1.6
- isoTOP-ABPP ratio (reactivity profile), O00622_C39 (CYR61 C39 (O00622); 500 μm in-vitro ramos_231): 1.0
Compound: COc1ccccc1OCCNC(=O)CCl [compound 28]

- isoTOP-ABPP ratio (reactivity profile), Q86UV5_C39 (USP48 C39 (Q86UV5); 500 μm in-vitro ramos_231): 1.2
Compound: O=C(CCl)N1CCN(CC(=O)N2CCOCC2)CC1 [compound 29]

- isoTOP-ABPP reactivity ratio, O00622_C39 (CYR61 C39 (O00622)): 1.2
- isoTOP-ABPP reactivity ratio, P50851_C1704 (LRBA C1704 (P50851)): 1.4
Compound: C=CC(=O)N(Cc1cccnc1)c1cc(C(F)(F)F)cc(C(F)(F)F)c1 [compound 31]

- isoTOP-ABPP reactivity ratio, Q16877_C159 (PFKFB4 C159 (Q16877)): 1.5
- isoTOP-ABPP reactivity ratio, P50851_C1704 (LRBA C1704 (P50851)): 2.0
Compound: CC(C)(C)c1cc(NC(=O)CCl)on1 [compound 32]

- isoTOP-ABPP reactivity ratio, Q16877_C159 (PFKFB4 C159 (Q16877)): 1.4
Compound: O=C(CCl)N(Cc1ccc(F)cc1)C12CC3CC(CC(C3)C1)C2 [compound 34]

- isoTOP-ABPP reactivity ratio, Q86UV5_C39 (USP48 C39 (Q86UV5); in-vitro_ramos): 1.0
- isoTOP-ABPP reactivity ratio, P50851_C1704 (LRBA C1704 (P50851)): 1.1
Compound: O=C(CCl)Nc1ccccc1C1CCCCCC1 [compound 35]

- isoTOP-ABPP reactivity ratio, Q86UV5_C39 (USP48 C39 (Q86UV5); in-vitro_ramos): 0.7
- isoTOP-ABPP reactivity ratio, P50851_C1704 (LRBA C1704 (P50851)): 1.0
Compound: C=CC(=O)N1CCC(c2noc3ccc(F)cc23)CC1 [compound 37]

- isoTOP-ABPP reactivity ratio, Q9Y5T5_C205 (USP16 C205 (Q9Y5T5); in-vitro_ramos): 1.9
- isoTOP-ABPP reactivity ratio, O00622_C39 (CYR61 C39 (O00622)): 0.8
- isoTOP-ABPP reactivity ratio, Q86UV5_C39 (USP48 C39 (Q86UV5); in-vitro_ramos_231): 3.7
- isoTOP-ABPP reactivity ratio, P50851_C1704 (LRBA C1704 (P50851)): 2.5
Compound: C=CC(=O)Nc1cc(F)c(N2CCN(C(=O)OC(C)(C)C)CC2)c(F)c1 [compound 38]

- isoTOP-ABPP reactivity ratio, Q9Y5T5_C205 (USP16 C205 (Q9Y5T5); in-vitro_ramos): 0.9
- isoTOP-ABPP reactivity ratio, Q16877_C159 (PFKFB4 C159 (Q16877)): 1.2
- isoTOP-ABPP reactivity ratio, Q86UV5_C39 (USP48 C39 (Q86UV5); in-vitro_ramos): 1.6
Compound: C=CC(=O)Nc1cc(C)c(Br)cc1C [compound 40]

- isoTOP-ABPP reactivity ratio, Q9Y5T5_C205 (USP16 C205 (Q9Y5T5); in-vitro_ramos_231): 0.8
Compound: Cc1ccc(C=C(C#N)C(=O)NCCN2CCOCC2)cc1 [compound 41]

- isoTOP-ABPP reactivity profile ratio, Q9Y5T5_C205 (USP16 C205 (Q9Y5T5); in-vitro_ramos): 1.5
Compound: N#CC(=Cc1ccc(-c2ccccc2Cl)o1)C(N)=O [compound 42]

- isoTOP-ABPP reactivity profile ratio, Q86UV5_C39 (USP48 C39 (Q86UV5); in-vitro_ramos_231): 1.5
Compound: COc1cc(NC(=O)CCl)cc(OC)c1 [compound 43]

- isoTOP-ABPP reactivity profile ratio, Q9Y5T5_C205 (USP16 C205 (Q9Y5T5); in-vitro_ramos_231): 1.0
- isoTOP-ABPP reactivity profile ratio, O00622_C39 (CYR61 C39 (O00622)): 1.9
Compound: C=CC(=O)N(c1ccccc1)C1CCCCC1 [compound 46]

- isoTOP-ABPP reactivity profile ratio, O00622_C39 (CYR61 C39 (O00622)): 2.3
Compound: O=C(CCl)N1CCc2cc(Br)ccc21 [compound 50]

- isoTOP-ABPP reactivity profile ratio, Q9Y5T5_C205 (USP16 C205 (Q9Y5T5); in-vitro_ramos): 3.2
- isoTOP-ABPP reactivity profile ratio, Q9Y5T5_C205 (USP16 C205 (Q9Y5T5); in-vitro_ramos_231): 1.7
- isoTOP-ABPP reactivity profile ratio, Q16877_C159 (PFKFB4 C159 (Q16877)): 1.1
- isoTOP-ABPP reactivity profile ratio, Q86UV5_C39 (USP48 C39 (Q86UV5); in-vitro_ramos): 1.8
- isoTOP-ABPP reactivity profile ratio, P50851_C1704 (LRBA C1704 (P50851)): 1.1
Compound: O=C(CCl)Nc1cccc2ncccc12 [compound 51]

- isoTOP-ABPP reactivity profile ratio, Q86UV5_C39 (USP48 C39 (Q86UV5); in-vitro_ramos_231): 0.9
- isoTOP-ABPP reactivity profile ratio, P50851_C1704 (LRBA C1704 (P50851)): 1.1
Compound: O=C(CCl)Nc1ccc(-c2ccccc2)cc1 [compound 52]

- isoTOP-ABPP reactivity profile ratio, Q9Y5T5_C205 (USP16 C205 (Q9Y5T5); in-vitro_ramos_231): 1.1
Compound: C=CC(=O)N1CCC(Cc2ccccc2)CC1 [compound 53]
